Reference: patent US20260000642A1 (Tay Therapeutics Limited, priority 2022, published 2026)
pIC50: −log10 of the molar value. One block for each compound: values may come before it.

Legend:
[1] = biological target: T1, BRD4 BD2 (Homo sapiens, UniProt O60885); assay: NanoBRET bromodomain assay, NanoLuc-BRD4-BD2 fusion vector in HEK293 cells; type: cell-based; conditions: NanoBRET, HEK293 cells, top concentration 10 μM
T1 construct: HEK293 cells were transfected using NanoLuc-BRD4-BD1 or NanoLuc-BRD4-BD2 fusion vectors; host or cells: HEK293
Text: (§1) Bromodomain Assay Procedure

[2] = Sprague-Dawley rat pharmacokinetics (IV and PO); type: in vivo; conditions: male Sprague-Dawley rats, cassette mode, Method 1
Text: BET protein inhibitors with a long half-life and good oral bioavailability in in vivo DMPK parameters are promising oral drug candidates. Some of the exemplary compounds of the current disclosure have a long half-life and good oral bioavailability in in vivo DMPK parameters in the Sprague-Dawley rat following intravenous (IV) and oral (PO) dosing. The experimental methods and results (Table 5) are provided hereinafter.
Sprague-Dawley Rat Pharmacokinetics, Method 1
Compounds were formulated in 5% DMSO, 40% PEG-400, 55% Milli-Q water at a concentration of 0.2 mg/mL for IV and at 0.5 mg/mL for PO. Two male Sprague-Dawley rats per arm were dosed with up to 5 compounds in cassette mode, which each compound being dosed at 1 mg/kg IV and 5 mg/kg PO. Blood was sampled at various timepoints and plasma isolated. 50 μL of plasma with 5 μL of blank Sprague-Dawley rat plasma were added to 200 μL of acetonitrile containing IS mixture. The samples were vortexed for 30 s. After centrifugation at 4 degrees Celsius, 3900 rpm for 15 min, the supernatant was diluted 3 times with water. 20 μL of diluted supernatant was injected into the LC/MS/MS system for quantitative analysis and concentration of analyte determined by comparison with matrix matched standard curve. WinNonlin (Phoenix™, version 8.3) or other similar software may be used for pharmacokinetic calculations.

[3] = Plasma stability assay, rat plasma; type: in vitro ADME; conditions: 37° C.
Protocol: Exemplary compounds of the disclosure are stable upon incubation in mouse plasma. Stability is expressed as a % remaining after 120 minutes. The experimental methods and results (Table 2) are provided hereinafter.
Plasma Stability Assay, Method 1
From stock solution of compound in 10 mM DMSO, a working solution of 1 mM is prepared by diluting the compound in DMSO. To 398 μL of plasma pre-warmed at 37° C. for 15 minutes), 2 μL of working solution of compound is added, resulting in a final concentration of 5 μM (0.5% DMSO) for the compound. The sample is then incubated at 37° C. Aliquot is withdrawn at specified time-points (0, 15, 30, 60 and 120 mins). The reaction is stopped by addition of 450 μL cold acetonitrile containing internal standard (IS). […] Aliquots of the supernatant is analysed using LC-MS/MS. The percent remaining of the compound at each time point is calculated with respect to the control sample (0 min time-point).
Plasma Stability Assay, Method 2
A working solution of compound (500 μM) is prepared in DMSO (100%). To 735 μL of plasma, 15 μL of working solution of compound is added—resulting in a final concentration of 10 μM (2% DMSO) for the compound. The sample is then incubated at 37° C. Aliquot is withdrawn at time-points—0, 15, 30, 60, 90 and 120 mins. The reaction is stopped by using chilled acetonitrile containing internal standard (IS). The samples are centrifuged and the supernatants analyzed using LC-MS/MS. The percent remaining of the compound at each time point is calculated with respect to the control sample (0 min time-point).

[4] = biological target: T2, BRD4 BD1 (Homo sapiens, UniProt O60885); assay: NanoBRET bromodomain assay, NanoLuc-BRD4-BD1 fusion vector in HEK293 cells; type: cell-based; conditions: top concentration 10 μM
T2 construct: HEK293 cells were transfected using NanoLuc-BRD4-BD1 or NanoLuc-BRD4-BD2 fusion vectors; host or cells: HEK293
Text: as §1

[5] = Plasma stability assay, human plasma; type: in vitro ADME; conditions: 37° C., Method 1 (5 μM)
[6] = Intrinsic clearance in liver microsomes, mouse; type: in vitro ADME; conditions: pH 7.4, mouse liver microsomes 0.5 mg/mL, Method 1, read-out: Half-Life (T1/2) (min) Mouse
Protocol: (§2) BET protein inhibitors with a long half-life in liver microsomes from various species are in some embodiments promising oral drug candidates. Some of the exemplary compounds of the current disclosure have a long half-life in liver microsomes, expressed in minutes. The experimental methods and results (Table 3) are provided hereinafter.
(§3) Intrinsic Clearance in Liver Microsomes Assay, Method 1
(§4) From stock solution of compound on 10 mM DMSO, a working solution of 0.1 mM is prepared by diluting the compound in DMSO. 6.25 μL of a 20 mg/mL solution of microsomes in PBS pH 7.4 buffer is added to 216.25 μL PBS pH 7.4 buffer (final microsome concentration—0.5 mg/mL). 25 μL of 10 mM solution of NADPH in PBS pH 7.4 buffer is added to the incubations (final NADPH concentration—1 mM). The mixture is pre-warmed to 37° C. for 10 minutes. 2.5 μL of test compound working solution is added (final compound concentration—1 μM with 1% DMSO). […] The percent compound remaining at each time point is calculated with respect to that of the 0.5 min sample. The data are analysed to calculate half-life. […]
(§5) A 50 mM stock solution (in DMSO) is prepared for the compound. […] The samples are centrifuged, and the supernatants analysed by LC-MS/MS. The percent compound remaining at each time point is calculated with respect to that of the 0 min sample. The data are then analysed to calculate half-life and intrinsic clearance (CLint). […]

[7] = Intrinsic clearance in liver microsomes, rat; type: in vitro ADME; conditions: pH 7.4, rat liver microsomes 0.5 mg/mL, Method 1, read-out: Half-Life (T1/2) (min) Rat
Protocol: as §2, §3, §4, §5

[8] = tested on: CXCL10; assay: Human PBMC assay, CXCL10 by ELISA (IFN-γ stimulation); type: cell-based
Protocol: The impact of Examples 23, 80, and 101 on IL-17A, IL-22, and CXCL10 levels was analyzed in cryopreserved human peripheral blood mononuclear cells (PBMC) by ELISA.
For IL-17A and IL-22 assays, Examples 23, 80, and 101 were serially diluted from 10 mM in DMSO and further diluted in assay media to 100× the required final concentration, of which, 2 μL was added per well to a round-bottom 96-well tissue culture plate where the final DMSO concentration per well was 0.1%. CD2, CD3, and CD28 antibody-coated beads from the T-cell activation/expansion kit (Miltenyi Biotec) were added to the PBMC at a bead-to-cell ratio of 1:2. The mixture of PBMCs and beads were seeded into the wells of the round-bottom 96-well plate at a concentration of 2×10^5 cells/well in a total volume of 200 μL. The cells were cultured for 72 hours at 37° C. and 5% CO2 and then supernatants were collected and IL-17A and IL-22 levels were measured by ELISA. For the CXCL10 assay, Examples 23, 80, and 101 were serially diluted from 10 mM in DMSO and further diluted in assay media to 100× the required final concentration, of which 2 μL was added per well to a 96-well tissue culture plate. The final compound concentration ranged from 30,000 nM to 0.005 nM and the final DMSO concentration per well was 0.3%. PBMCs were seeded at approximately […] in the wells of the 96-well tissue culture plate in a total volume of 190 μL. The plate was incubated for 1 hour at 37° C. and 5% CO2. The cells were then stimulated with IFN-γ (15 ng/mL final concentration) in a volume of 10 μL. The cells were then cultured for 24 hours at 37° C. and 5% CO2. The supernatant was collected and CXCL10 levels were measured by ELISA.

[9] = tested on: IL-22; assay: Human PBMC assay, IL-22 by ELISA (CD2/CD3/CD28 bead stimulation); type: cell-based; conditions: 72 hours
Protocol: (§6) CD2, CD3, and CD28 antibody-coated beads from the T-cell activation/expansion kit (Miltenyi Biotec) were added to the PBMC at a bead-to-cell ratio of 1:2. The mixture of PBMCs and beads were seeded into the wells of the round-bottom 96-well plate at a concentration of 2×10^5 cells/well in a total volume of 200 μL. The cells were cultured for 72 hours at 37° C. and 5% CO2 and then supernatants were collected and IL-17A and IL-22 levels were measured by ELISA. […] The final compound concentration ranged from 30,000 nM to 0.005 nM and the final DMSO concentration per well was 0.3%. PBMCs were seeded at approximately […] in the wells of the 96-well tissue culture plate in a total volume of 190 μL. The plate was incubated for 1 hour at 37° C. and 5% CO2. […] The cells were then cultured for 24 hours at 37° C. and 5% CO2. The supernatant was collected and CXCL10 levels were measured by ELISA.

[10] = tested on: IL-17A; assay: Human PBMC assay, IL-17A by ELISA (CD2/CD3/CD28 bead stimulation); type: cell-based; conditions: 72 hours
Protocol: as §6

pIC50 [1]: 6.70 to 7.30 | IV T1/2 ([2]; IV 1 mg/kg): 0.6 h | PO F (%) ([2]; PO 5 mg/kg (IV 1 mg/kg)): 15% | Plasma Stability (% remaining at 120 minutes) Rat ([3]; Method 2 (10 μM)): 81% | pIC50 [4]: ≤ 5.00
SMILES: CNC(=O)c1[nH]c(C(=O)NC2COC2)cc1OC(C)c1ccc(Cl)cc1 (single isomer, unassigned) [Example 31, 3-(1-(4-chlorophenyl)ethoxy)-N^2-methyl-N^5-(oxetan-3-yl)-1H-pyrrole-2,5-dicarboxamide]

Plasma Stability (% remaining at 120 minutes) Human [5]: >99% | bioavailability ([2]; rat, plasma, PO 5 mg/kg (IV 1 mg/kg), read-out: PO F (%)): 60% | half-life at 1 μM [6]: 70 min | Plasma Stability (% remaining at 120 minutes) Rat ([3]; Method 1 (5 μM)): >99% | half-life at 1 μM [7]: > 60 min
SMILES: CNC(=O)c1[nH]c(C(=O)N[C@H]2CC[C@H](O)CC2)cc1O[C@@H](C)c1ccccc1 (single isomer, unassigned) [Example 97]

IC50 for IL-22 relative to GSK620 [9]: decreased mean 1050 | IC50 for IL-17A relative to GSK620 [10]: decreased mean 1050
SMILES: CNC(=O)c1[nH]c(-c2ncc(C)[nH]2)cc1O[C@@H](C)c1ccccc1 [Example 23, (S)—N-methyl-5-(5-methyl-1H-imidazol-2-yl)-3-(1-phenylethoxy)-1H-pyrrole-2-carboxamide]
selectivity to induction of CXCL10 relative to IL-17A and IL-22 [8]: showed selectivity

IC50 for IL-22 relative to GSK620 [9]: decreased mean 1050 | IC50 for IL-17A relative to GSK620 [10]: increased mean 1050
SMILES: CNC(=O)c1[nH]c(-c2cnn(C(C)C)c2)cc1O[C@@H](C)c1ccccc1 [Example 80, (S)-5-(1-isopropyl-1H-pyrazol-4-yl)-N-methyl-3-(1-phenylethoxy)-1H-pyrrole-2-carboxamide]
selectivity to induction of CXCL10 relative to IL-17A and IL-22 [8]: showed selectivity
